Laboratory results: the kinase profiling compilation of Christmann-Franck et al. (2016)

Key:
MAP2K6 (human) = MAP2K6 (human) (UniProt P52564)
RPS6KA3 KD1 KD2 (human) = RPS6KA3 KD1 KD2 (human) (UniProt P51812)
ABL2 (human) = ABL2 (human) (UniProt P42684)
CSNK1G3 (human) = CSNK1G3 (human) (UniProt Q9Y6M4)
MAPK14 (human) = MAPK14 (human) (UniProt Q16539)
CSNK2A2 (human) = CSNK2A2 (human) (UniProt P19784)
PRKCD (human) = PRKCD (human) (UniProt Q05655)
JAK2 JH1 JH2 (human) = JAK2 JH1 JH2 (human) (UniProt O60674)
PRKAA1 (human) = PRKAA1 (human) (UniProt Q13131)
STK16 (human) = STK16 (human) (UniProt O75716)
CDK13 (human) = CDK13 (human) (UniProt Q14004)
MAP2K2 (human) = MAP2K2 (human) (UniProt P36507)
CSNK2A1 (human) = CSNK2A1 (human) (UniProt P68400)
JAK3 JH1 JH2 (human) = JAK3 JH1 JH2 (human) (UniProt P52333)
PRKD2 (human) = PRKD2 (human) (UniProt Q9BZL6)
STK10 (human) = STK10 (human) (UniProt O94804)
MAPK8 (human) = MAPK8 (human) (UniProt P45983)
CAMKK2 (human) = CAMKK2 (human) (UniProt Q96RR4)
MAP4K1 (human) = MAP4K1 (human) (UniProt Q92918)
MAPK9 (human) = MAPK9 (human) (UniProt P45984)
TESK1 (human) = TESK1 (human) (UniProt Q15569)
MAST3 (human) = MAST3 (human) (UniProt O60307)
TAOK2 (human) = TAOK2 (human) (UniProt Q9UL54)
CAMK2G (human) = CAMK2G (human) (UniProt Q13555)
CSK (human) = CSK (human) (UniProt P41240)
MAP4K2 (human) = MAP4K2 (human) (UniProt Q12851)
HCK (human) = HCK (human) (UniProt P08631)
FER (human) = FER (human) (UniProt P16591)
MTOR (human) = MTOR (human) (UniProt P42345)
MAP2K1 (human) = MAP2K1 (human) (UniProt Q02750)
MARK3 (human) = MARK3 (human) (UniProt P27448)
RPS6KA5 KD1 KD2 (human) = RPS6KA5 KD1 KD2 (human) (UniProt O75582)
STK17B (human) = STK17B (human) (UniProt O94768)
NEK7 (human) = NEK7 (human) (UniProt Q8TDX7)
CDKL2 (human) = CDKL2 (human) (UniProt Q92772)
IKBKE (human) = IKBKE (human) (UniProt Q14164)
DDR1 (human) = DDR1 (human) (UniProt Q08345)
ADCK3 (human) = ADCK3 (human) (UniProt Q8NI60)
AAK1 (human) = AAK1 (human) (UniProt Q2M2I8)
CAMK2D (human) = CAMK2D (human) (UniProt Q13557)
CSNK1A1 (human) = CSNK1A1 (human) (UniProt P48729)
SGK223 (human) = SGK223 (human) (UniProt Q86YV5)
RPS6KA4 KD1 KD2 (human) = RPS6KA4 KD1 KD2 (human) (UniProt O75676)

CSNK2A2 (human), sequence (P19784 whole entry, looked up): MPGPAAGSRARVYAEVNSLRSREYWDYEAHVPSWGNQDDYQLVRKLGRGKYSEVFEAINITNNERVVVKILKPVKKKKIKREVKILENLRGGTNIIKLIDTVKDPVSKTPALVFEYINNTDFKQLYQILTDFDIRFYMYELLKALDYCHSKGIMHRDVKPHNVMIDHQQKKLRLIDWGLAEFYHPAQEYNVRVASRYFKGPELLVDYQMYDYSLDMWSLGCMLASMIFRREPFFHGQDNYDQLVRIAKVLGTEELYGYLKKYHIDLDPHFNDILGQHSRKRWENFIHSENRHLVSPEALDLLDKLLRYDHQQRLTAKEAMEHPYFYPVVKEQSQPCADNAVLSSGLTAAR
ABL2 (human), sequence (P42684 whole entry, looked up): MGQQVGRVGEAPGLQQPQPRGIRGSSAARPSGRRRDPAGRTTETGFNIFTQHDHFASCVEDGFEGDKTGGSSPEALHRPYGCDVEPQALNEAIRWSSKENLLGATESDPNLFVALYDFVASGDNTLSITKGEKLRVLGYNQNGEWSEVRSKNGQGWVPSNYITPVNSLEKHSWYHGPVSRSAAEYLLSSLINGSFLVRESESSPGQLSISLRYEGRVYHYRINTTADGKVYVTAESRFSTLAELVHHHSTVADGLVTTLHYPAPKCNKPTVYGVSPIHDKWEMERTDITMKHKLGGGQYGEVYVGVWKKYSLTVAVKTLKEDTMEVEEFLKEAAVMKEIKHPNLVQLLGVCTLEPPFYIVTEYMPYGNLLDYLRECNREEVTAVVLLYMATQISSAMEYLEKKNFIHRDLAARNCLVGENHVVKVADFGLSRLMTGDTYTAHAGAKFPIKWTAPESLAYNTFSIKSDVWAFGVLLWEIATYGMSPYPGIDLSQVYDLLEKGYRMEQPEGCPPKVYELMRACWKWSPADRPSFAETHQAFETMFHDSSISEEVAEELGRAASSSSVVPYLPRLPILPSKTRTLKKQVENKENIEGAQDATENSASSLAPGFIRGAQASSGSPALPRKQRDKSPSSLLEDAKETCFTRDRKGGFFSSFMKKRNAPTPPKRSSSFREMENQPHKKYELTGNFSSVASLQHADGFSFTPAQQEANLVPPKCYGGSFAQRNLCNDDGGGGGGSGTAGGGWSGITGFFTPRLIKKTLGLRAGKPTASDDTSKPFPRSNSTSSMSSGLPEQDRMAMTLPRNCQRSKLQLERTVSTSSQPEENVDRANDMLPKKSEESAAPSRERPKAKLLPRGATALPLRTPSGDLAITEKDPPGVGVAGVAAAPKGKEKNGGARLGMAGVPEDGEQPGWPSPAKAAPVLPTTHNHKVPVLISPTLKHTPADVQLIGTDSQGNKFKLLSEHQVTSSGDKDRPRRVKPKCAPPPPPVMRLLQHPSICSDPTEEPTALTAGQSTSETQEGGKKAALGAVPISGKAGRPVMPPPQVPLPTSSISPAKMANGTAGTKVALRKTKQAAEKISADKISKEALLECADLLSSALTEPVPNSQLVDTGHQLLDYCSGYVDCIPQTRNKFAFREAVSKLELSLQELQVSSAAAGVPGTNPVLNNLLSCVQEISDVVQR
CSNK1A1 (human), sequence (P48729 whole entry, looked up): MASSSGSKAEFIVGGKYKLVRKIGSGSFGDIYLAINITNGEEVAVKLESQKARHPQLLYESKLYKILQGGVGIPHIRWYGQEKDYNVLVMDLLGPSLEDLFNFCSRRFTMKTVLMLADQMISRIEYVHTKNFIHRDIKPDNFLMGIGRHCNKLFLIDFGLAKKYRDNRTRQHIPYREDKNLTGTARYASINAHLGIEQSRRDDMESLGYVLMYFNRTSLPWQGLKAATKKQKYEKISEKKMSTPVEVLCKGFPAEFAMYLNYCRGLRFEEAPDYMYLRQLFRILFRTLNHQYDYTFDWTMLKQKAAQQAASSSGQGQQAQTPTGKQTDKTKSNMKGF
PRKD2 (human), sequence (Q9BZL6 whole entry, looked up): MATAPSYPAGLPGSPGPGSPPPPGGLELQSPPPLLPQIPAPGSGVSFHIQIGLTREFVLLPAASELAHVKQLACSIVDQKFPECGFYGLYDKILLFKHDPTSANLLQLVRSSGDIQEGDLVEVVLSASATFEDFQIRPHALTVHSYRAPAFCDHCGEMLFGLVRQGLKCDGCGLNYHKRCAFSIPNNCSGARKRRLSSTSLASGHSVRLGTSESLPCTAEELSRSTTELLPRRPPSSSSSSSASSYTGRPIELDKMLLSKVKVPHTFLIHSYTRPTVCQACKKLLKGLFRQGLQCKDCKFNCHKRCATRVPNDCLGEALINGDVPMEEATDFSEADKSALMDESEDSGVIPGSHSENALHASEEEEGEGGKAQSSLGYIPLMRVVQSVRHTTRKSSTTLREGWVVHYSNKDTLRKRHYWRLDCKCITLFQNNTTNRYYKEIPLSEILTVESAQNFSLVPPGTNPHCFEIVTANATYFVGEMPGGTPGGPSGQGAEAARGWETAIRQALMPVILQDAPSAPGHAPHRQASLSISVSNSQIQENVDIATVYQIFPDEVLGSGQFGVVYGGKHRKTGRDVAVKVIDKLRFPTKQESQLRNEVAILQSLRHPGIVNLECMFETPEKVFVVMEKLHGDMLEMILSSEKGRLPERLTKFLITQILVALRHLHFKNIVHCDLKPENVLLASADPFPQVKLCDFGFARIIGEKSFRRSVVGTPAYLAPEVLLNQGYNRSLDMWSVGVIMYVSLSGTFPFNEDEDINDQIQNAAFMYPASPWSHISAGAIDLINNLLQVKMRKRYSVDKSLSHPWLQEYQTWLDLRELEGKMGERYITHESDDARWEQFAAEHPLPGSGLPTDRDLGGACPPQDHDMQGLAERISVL
CAMK2G (human), sequence (Q13555 whole entry, looked up): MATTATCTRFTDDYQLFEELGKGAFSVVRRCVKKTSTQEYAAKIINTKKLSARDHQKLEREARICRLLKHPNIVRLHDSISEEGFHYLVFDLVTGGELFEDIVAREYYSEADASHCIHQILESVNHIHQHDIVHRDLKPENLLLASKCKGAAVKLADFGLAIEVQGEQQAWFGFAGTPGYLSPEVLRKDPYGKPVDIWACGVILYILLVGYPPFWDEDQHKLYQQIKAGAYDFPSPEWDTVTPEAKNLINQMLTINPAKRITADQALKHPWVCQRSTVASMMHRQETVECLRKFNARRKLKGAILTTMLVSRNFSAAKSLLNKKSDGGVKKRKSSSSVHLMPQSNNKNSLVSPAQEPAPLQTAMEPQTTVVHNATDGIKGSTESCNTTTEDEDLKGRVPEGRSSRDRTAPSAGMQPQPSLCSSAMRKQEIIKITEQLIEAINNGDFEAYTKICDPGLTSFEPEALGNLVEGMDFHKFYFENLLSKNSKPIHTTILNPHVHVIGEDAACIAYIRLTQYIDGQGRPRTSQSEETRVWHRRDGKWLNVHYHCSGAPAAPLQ
JAK2 JH1 JH2 (human), sequence (O60674 whole entry, looked up): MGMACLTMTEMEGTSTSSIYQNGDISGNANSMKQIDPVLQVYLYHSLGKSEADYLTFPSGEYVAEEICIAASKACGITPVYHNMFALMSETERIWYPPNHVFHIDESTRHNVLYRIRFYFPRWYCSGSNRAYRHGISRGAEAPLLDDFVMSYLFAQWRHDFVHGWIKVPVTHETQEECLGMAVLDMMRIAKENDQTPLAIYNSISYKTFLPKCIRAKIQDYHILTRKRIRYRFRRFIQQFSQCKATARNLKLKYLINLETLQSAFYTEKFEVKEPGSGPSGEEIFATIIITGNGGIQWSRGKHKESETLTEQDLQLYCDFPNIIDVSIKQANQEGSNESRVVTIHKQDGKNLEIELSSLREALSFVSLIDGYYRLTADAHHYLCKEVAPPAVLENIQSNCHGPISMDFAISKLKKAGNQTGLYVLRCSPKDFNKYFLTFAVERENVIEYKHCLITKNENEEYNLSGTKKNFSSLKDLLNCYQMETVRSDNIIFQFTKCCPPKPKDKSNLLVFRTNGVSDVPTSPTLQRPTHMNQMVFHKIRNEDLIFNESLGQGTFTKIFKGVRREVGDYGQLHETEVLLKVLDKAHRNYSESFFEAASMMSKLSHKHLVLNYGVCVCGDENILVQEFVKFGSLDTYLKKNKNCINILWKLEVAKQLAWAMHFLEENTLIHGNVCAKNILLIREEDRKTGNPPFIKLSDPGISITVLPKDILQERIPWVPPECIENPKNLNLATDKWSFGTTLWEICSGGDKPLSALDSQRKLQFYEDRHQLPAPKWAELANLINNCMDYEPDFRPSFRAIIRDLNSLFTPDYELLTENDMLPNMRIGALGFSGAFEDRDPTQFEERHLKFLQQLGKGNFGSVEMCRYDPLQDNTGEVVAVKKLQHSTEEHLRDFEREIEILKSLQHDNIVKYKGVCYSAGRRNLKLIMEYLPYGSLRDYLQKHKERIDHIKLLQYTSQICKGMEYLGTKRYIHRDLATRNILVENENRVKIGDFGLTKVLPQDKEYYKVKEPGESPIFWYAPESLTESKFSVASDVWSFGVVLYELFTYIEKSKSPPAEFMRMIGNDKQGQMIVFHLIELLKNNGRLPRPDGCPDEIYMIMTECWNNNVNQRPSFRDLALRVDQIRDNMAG
MAPK9 (human), sequence (P45984 whole entry, looked up): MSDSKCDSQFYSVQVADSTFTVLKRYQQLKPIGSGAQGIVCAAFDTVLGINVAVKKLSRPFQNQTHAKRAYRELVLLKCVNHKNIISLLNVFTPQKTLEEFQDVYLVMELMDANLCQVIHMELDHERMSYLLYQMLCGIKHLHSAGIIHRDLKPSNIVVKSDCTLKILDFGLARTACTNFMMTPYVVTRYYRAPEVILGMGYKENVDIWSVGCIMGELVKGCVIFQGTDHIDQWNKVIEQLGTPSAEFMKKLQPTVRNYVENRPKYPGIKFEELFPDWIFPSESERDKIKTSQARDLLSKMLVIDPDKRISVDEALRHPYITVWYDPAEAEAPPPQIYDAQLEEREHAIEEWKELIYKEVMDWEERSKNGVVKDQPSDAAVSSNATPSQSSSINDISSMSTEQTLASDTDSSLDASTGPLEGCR

Question: For CN1CC[C@H](c2c(O)cc(O)c3c(=O)cc(-c4ccccc4Cl)oc23)[C@H](O)C1, which IC50 (MAP2K6 (human)) is on record?
Answer: > 10 µM

Question: What about the IC50 (RPS6KA3 KD1 KD2 (human)) of the same molecule?
Answer: > 10 µM

Question: What about the IC50 (ABL2 (human)) of the same molecule?
Answer: > 10 µM

Question: What about the IC50 (CSNK1G3 (human)) of the same molecule?
Answer: > 10 µM

Question: And the IC50 (MAPK14 (human))?
Answer: > 10 µM

Question: And the IC50 (CSNK2A2 (human))?
Answer: > 10 µM

Question: And the IC50 (PRKCD (human))?
Answer: 1.19 µM

Question: What about the IC50 (JAK2 JH1 JH2 (human)) of the same molecule?
Answer: > 10 µM

Question: What about the IC50 (PRKAA1 (human)) of the same molecule?
Answer: > 10 µM

Question: What about the IC50 (STK16 (human)) of the same molecule?
Answer: > 10 µM

Question: What about the IC50 (CDK13 (human)) of the same molecule?
Answer: 4.4 µM

Question: And the IC50 (MAP2K2 (human))?
Answer: > 10 µM

Question: What about the IC50 (CSNK2A1 (human)) of the same molecule?
Answer: 9.42 µM

Question: What about the IC50 (JAK3 JH1 JH2 (human)) of the same molecule?
Answer: > 10 µM

Question: What about the IC50 (PRKD2 (human)) of the same molecule?
Answer: 1.26 µM

Question: And the IC50 (STK10 (human))?
Answer: > 10 µM

Question: What about the IC50 (MAPK8 (human)) of the same molecule?
Answer: > 10 µM

Question: And the IC50 (CAMKK2 (human))?
Answer: 0.925 µM

Question: And the IC50 (MAP4K1 (human))?
Answer: > 10 µM

Question: And the IC50 (MAPK9 (human))?
Answer: > 10 µM

Question: What about the IC50 (TESK1 (human)) of the same molecule?
Answer: > 10 µM

Question: What about the IC50 (MAST3 (human)) of the same molecule?
Answer: > 10 µM

Question: What about the IC50 (TAOK2 (human)) of the same molecule?
Answer: 8.47 µM

Question: What about the IC50 (CAMK2G (human)) of the same molecule?
Answer: 8.42 µM

Question: What about the IC50 (CSK (human)) of the same molecule?
Answer: > 10 µM

Question: And the IC50 (MAP4K2 (human))?
Answer: > 10 µM

Question: What about the IC50 (HCK (human)) of the same molecule?
Answer: > 10 µM

Question: And the IC50 (FER (human))?
Answer: > 10 µM

Question: And the IC50 (MTOR (human))?
Answer: > 10 µM

Question: What about the IC50 (MAP2K1 (human)) of the same molecule?
Answer: > 10 µM

Question: And the IC50 (MARK3 (human))?
Answer: 3 µM

Question: What about the IC50 (RPS6KA5 KD1 KD2 (human)) of the same molecule?
Answer: > 10 µM

Question: And the IC50 (STK17B (human))?
Answer: > 10 µM

Question: And the IC50 (NEK7 (human))?
Answer: > 10 µM

Question: What about the IC50 (CDKL2 (human)) of the same molecule?
Answer: > 10 µM

Question: What about the IC50 (IKBKE (human)) of the same molecule?
Answer: > 10 µM

Question: And the IC50 (DDR1 (human))?
Answer: > 10 µM

Question: And the IC50 (ADCK3 (human))?
Answer: > 10 µM

Question: What about the IC50 (AAK1 (human)) of the same molecule?
Answer: > 10 µM

Question: What about the IC50 (CAMK2D (human)) of the same molecule?
Answer: 7.67 µM

Question: What about the IC50 (CSNK1A1 (human)) of the same molecule?
Answer: 8.41 µM

Question: And the IC50 (SGK223 (human))?
Answer: > 10 µM

Question: And the IC50 (RPS6KA4 KD1 KD2 (human))?
Answer: 6.42 µM
